Measurements reported in patent publication US8895733B2 (Novartis AG, priority 2010, dated 2014).
pIC50: −log10 of the molar value.

Each molecule was assayed against T1, Nav 1.7 (Homo sapiens, UniProt Q15858) (assay: Whole-cell voltage clamp electrophysiology, automated patch clamp (marker c in Table of Examples)). Conditions: marker c = Automated patch clamp data; read-out: Nav 1.7 activity.
T1 construct: expressed in transfected cells
Type: cell-based
Text: a.IonWork Quattro data, b=Manual patch clamp data, c=Automated patch clamp data M=Method
Whole-Cell Voltage Clamp Electrophysiology Assay
Patch-clamp electrophysiology is considered the gold standard technique for investigation of ion channel function and pharmacology. Using this method, sodium channel currents can be measured in cells, which stably (or transiently) express the sodium channel subtype of interest. Application of compounds during such experiments provides a functional measure of the activity and potency of compounds affecting the ion channel of interest.
Electrophysiological studies can be performed using automated or manual patch-clamp techniques. Automated patch-clamp instruments suitable for this work include the Ion Works HT (MDS), Ion Works Quattro (MDS), PatchLiner (Nanion technologies), Port-A-Patch (Nanion technologies), QPatch (Sophion) or any other suitable platform.
For recording in automated patch-clamp instruments, cells expressing the voltage-gated sodium channel subtype of interest are dispensed in appropriate chips (plates with more than one recording chambers each containing one or more apertures to generate whole-cell patches), as provided by the manufacturer. Typically, the whole-cell perforated patch configuration is used for probing the pharmacology of compounds in automated patch-clamp electrophysiology on sodium channels. Extracellular and intracellular buffers for such experiments are composed according to the literature, or according to the instructions provided by the manufacturer of the instruments. Test solutions, which contain the compounds to be tested, are applied to the cells expressing the sodium channel of interest by a pipetting system, typically integrated into the robots.
A suitable voltage stimulus protocol is used to activate voltage-gated sodium channel proteins of interest. A typical stimulus protocol may consist of sweeps of sequential voltage pulses starting from a holding potential (i.e. −65 mV), to a more positive and depolarising test pulse potential (i.e. −10 mV) and finally to a more negative and hyperpolarising potential (i.e. −100 mV). According to the biophysics of the voltage-gated ion channel of interest and interest in channel configuration the voltages and durations of the pulses as well as the overall frequency of sweeps applied might vary. Accordingly, a stimulus protocol was designed to assess compounds due to their potential to block NaV1.7 channels primarily in inactivated state. Selectivity over other voltage-gated sodium channel members was assessed by protocols that reflect the native function of the channels (i.e. heart rate or firing of neurons).

T1 sequence (Q15858 whole entry): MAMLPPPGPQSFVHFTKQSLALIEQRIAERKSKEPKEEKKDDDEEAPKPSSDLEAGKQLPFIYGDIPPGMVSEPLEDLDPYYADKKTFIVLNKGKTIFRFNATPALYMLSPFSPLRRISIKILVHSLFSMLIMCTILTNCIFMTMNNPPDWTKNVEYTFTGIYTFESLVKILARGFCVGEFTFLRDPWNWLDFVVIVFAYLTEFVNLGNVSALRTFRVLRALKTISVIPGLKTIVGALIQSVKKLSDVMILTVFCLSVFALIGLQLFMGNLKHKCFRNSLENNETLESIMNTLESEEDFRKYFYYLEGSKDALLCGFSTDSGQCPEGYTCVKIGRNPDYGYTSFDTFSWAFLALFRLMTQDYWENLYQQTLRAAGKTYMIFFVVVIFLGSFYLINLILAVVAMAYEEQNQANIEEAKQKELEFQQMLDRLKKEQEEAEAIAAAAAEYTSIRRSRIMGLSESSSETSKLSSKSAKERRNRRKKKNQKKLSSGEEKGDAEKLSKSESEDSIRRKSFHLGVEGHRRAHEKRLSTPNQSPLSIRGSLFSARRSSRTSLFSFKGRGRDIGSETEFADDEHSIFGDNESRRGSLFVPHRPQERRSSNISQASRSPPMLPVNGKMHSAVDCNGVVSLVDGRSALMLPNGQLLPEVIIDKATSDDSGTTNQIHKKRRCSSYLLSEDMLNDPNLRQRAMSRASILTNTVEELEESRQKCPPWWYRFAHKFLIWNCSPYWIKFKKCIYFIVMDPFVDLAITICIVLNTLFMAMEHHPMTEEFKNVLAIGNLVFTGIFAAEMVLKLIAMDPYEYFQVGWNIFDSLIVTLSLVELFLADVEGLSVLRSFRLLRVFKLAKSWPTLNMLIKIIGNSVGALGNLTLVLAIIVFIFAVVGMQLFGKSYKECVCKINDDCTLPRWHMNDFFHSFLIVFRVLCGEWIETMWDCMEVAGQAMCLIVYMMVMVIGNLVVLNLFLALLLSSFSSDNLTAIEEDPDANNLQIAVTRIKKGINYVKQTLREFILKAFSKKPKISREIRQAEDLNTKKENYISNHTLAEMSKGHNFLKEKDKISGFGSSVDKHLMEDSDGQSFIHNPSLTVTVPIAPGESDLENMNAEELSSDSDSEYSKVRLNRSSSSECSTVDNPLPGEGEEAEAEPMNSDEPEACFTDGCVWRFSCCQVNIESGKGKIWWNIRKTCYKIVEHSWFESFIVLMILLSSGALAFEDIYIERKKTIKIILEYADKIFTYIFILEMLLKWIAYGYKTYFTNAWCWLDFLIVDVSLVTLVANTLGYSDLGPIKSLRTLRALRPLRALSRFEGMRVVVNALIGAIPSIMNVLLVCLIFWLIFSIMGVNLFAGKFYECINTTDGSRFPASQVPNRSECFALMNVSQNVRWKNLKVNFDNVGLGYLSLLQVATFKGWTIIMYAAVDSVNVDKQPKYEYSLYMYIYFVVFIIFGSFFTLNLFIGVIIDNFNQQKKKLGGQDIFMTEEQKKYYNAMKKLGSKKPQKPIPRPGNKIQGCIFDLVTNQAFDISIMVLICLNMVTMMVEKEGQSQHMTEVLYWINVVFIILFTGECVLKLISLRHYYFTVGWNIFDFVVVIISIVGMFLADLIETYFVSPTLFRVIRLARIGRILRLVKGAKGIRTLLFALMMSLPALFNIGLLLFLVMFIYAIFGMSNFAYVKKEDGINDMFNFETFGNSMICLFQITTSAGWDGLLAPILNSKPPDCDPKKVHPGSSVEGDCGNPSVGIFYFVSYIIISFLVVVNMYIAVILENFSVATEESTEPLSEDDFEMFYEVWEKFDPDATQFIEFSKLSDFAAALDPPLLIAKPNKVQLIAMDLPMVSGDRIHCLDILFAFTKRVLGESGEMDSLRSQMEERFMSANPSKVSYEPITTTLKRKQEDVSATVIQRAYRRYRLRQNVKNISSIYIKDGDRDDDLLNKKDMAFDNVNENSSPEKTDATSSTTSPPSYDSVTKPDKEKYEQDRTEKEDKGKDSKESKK

pIC50	Compound
6.11	Nc1nc(Nc2cccc(Cl)c2F)nc(-c2noc(-c3ccccn3)n2)n1 [Example 264, 2-N-(3-Chloro-2-fluorophenyl)-6-[5-(pyridin-2-yl)-1,2,4-oxadiazol-3-yl]-1,3,5-triazine-2,4-diamine]
6.90	CN(c1ccccc1)c1nc(N)nc(-c2noc(-c3ccc(NCC4CC4)nc3)n2)n1 [Example 333, 6-(5-{6-[(cyclopropylmethyl)amino]pyridin-3-yl}-1,2,4-oxadiazol-3-yl)-2-N-methyl-2-N-phenyl-1,3,5-triazine-2,4-diamine]
7.24	CN(c1ccccc1)c1nc(N)nc(-c2noc(-c3ccc([S+]([O-])CCC(F)(F)F)nc3)n2)n1 (centres unmarked) [Example 455, 2-N-methyl-2-N-phenyl-6-(5-{6-[(3,3,3-trifluoropropane)sulfinyl]pyridin-3-yl}-1,2,4-oxadiazol-3-yl)-1,3,5-triazine-2,4-diamine]
5.28	CN(c1ccccc1)c1nc(N)nc(-c2noc(-c3ccc(CO)nc3)n2)n1 [Example 295, [5-(3-{4-Amino-6-[methyl(phenyl)amino]-1,3,5-triazin-2-yl}-1,2,4-oxadiazol-5-yl)pyridin-2-yl]methanol]
5.06	CC(C)S(=O)(=O)N1CC(c2nc(-c3nc(N)nc(N(C)c4ccccc4)n3)no2)C1 [Example 308, 2-N-methyl-2-N-phenyl-6-{5-[1-(propane-2-sulfonyl)azetidin-3-yl]-1,2,4-oxadiazol-3-yl}-1,3,5-triazine-2,4-diamine]
5.06	CN(C)C(=O)c1ccc(-c2nc(-c3nc(N)nc(N(C)c4ccccc4)n3)no2)cn1 [Example 478, 5-{3-[4-Amino-6-(methyl-phenyl-amino)-[1,3,5]triazin-2-yl]-[1,2,4]oxadiazol-5-yl}-pyridine-2-carboxylic acid dimethylamide]
6.13	Nc1nc(Nc2ccccc2)nc(-c2noc(C(=O)N3CCC(SCC(F)(F)F)CC3)n2)n1 [Example 466, 2-N-phenyl-6-[5-({4-[(2,2,2-trifluoroethyl)sulfanyl]piperidin-1-yl}carbonyl)-1,2,4-oxadiazol-3-yl]-1,3,5-triazine-2,4-diamine]
5.58	CN(c1ccccc1)c1nc(N)nc(-c2noc(N3C[C@@H]4[C@@H](COCC5CC5)[C@@H]4C3)n2)n1 [Example 395, 6-{5-[6-[(cyclopropylmethoxy)methyl]-3-azabicyclo[3.1.0]hexan-3-yl]-1,2,4-oxadiazol-3-yl}-2-N-methyl-2-N-phenyl-1,3,5-triazine-2,4-diamine]
5.74	CN(c1ccccc1)c1nc(N)nc(-c2noc(-c3ncc(F)cc3F)n2)n1 [Example 281]
7.55	CN(c1nc(N)nc(-c2noc(-c3ccc(OCC(F)(F)F)nc3)n2)n1)c1ccc(F)cc1F [Example 417, 2-N-(2,4-difluorophenyl)-2-N-methyl-6-{5-[6-(2,2,2-trifluoroethoxy)pyridin-3-yl]-1,2,4-oxadiazol-3-yl}-1,3,5-triazine-2,4-diamine]

Same assay, conditions: marker c: Automated patch clamp data; read-out: Nav 1.7 activity

pIC50	Compound
6.44	COc1cccc(-c2nc(-c3nc(N)nc(N(C)c4ccccc4F)n3)no2)c1 [Example 88, N-(2-Fluoro-phenyl)-6-[5-(3-methoxy-phenyl)-[1,2,4]oxadiazol-3-yl]-N-methyl-[1,3,5]triazine-2,4-diamine]
6.02	Cc1cccc(-c2nc(-c3nc(N)nc(N(C)c4ccccc4)n3)no2)c1 [Example 28, N-Methyl-N-phenyl-6-(5-m-tolyl-[1,2,4]oxadiazol-3-yl)-[1,3,5]triazine-2,4-diamine]
6.97	CCN(c1ccccc1)c1nc(N)nc(-c2noc(-c3ccc(OC)cc3)n2)n1 [Example 190, 2-N-ethyl-6-[5-(4-methoxyphenyl)-1,2,4-oxadiazol-3-yl]-2-N-phenyl-1,3,5-triazine-2,4-diamine]
5.83	CCCS(=O)(=O)N1CCC(c2nc(-c3nc(N)nc(N(C)c4ccccc4)n3)no2)CC1 [Example 168, 2-N-methyl-2-N-phenyl-6-{5-[1 - (propane-1-sulfonyl)piperidin-4-yl]-1,2,4-oxadiazol-3-yl}-1,3,5-triazine-2,4-diamine]
